In publication PMC6704710, “Preclinical evaluation of 3D185, a novel potent inhibitor of FGFR1/2/3 and CSF-1R, in FGFR-dependent and macrophage-dominant cancer models” (Journal of Experimental & Clinical Cancer Research : CR, 2019):

How the values were obtained:
Test in all cases: Eurofins kinase panel
Format in all cases: biochemical
Details in all cases: read-out: Inhibition rate (%)
[1] = target: T1, Plk1(h) (Homo sapiens, UniProt P53350)
T1 construct: purchased Eurofins (KinaseProfiler)

[2] = target: T2, IR(h) (Homo sapiens, UniProt P06213)
T2 construct: purchased Eurofins (KinaseProfiler)
T2 sequence (P06213 28-1382): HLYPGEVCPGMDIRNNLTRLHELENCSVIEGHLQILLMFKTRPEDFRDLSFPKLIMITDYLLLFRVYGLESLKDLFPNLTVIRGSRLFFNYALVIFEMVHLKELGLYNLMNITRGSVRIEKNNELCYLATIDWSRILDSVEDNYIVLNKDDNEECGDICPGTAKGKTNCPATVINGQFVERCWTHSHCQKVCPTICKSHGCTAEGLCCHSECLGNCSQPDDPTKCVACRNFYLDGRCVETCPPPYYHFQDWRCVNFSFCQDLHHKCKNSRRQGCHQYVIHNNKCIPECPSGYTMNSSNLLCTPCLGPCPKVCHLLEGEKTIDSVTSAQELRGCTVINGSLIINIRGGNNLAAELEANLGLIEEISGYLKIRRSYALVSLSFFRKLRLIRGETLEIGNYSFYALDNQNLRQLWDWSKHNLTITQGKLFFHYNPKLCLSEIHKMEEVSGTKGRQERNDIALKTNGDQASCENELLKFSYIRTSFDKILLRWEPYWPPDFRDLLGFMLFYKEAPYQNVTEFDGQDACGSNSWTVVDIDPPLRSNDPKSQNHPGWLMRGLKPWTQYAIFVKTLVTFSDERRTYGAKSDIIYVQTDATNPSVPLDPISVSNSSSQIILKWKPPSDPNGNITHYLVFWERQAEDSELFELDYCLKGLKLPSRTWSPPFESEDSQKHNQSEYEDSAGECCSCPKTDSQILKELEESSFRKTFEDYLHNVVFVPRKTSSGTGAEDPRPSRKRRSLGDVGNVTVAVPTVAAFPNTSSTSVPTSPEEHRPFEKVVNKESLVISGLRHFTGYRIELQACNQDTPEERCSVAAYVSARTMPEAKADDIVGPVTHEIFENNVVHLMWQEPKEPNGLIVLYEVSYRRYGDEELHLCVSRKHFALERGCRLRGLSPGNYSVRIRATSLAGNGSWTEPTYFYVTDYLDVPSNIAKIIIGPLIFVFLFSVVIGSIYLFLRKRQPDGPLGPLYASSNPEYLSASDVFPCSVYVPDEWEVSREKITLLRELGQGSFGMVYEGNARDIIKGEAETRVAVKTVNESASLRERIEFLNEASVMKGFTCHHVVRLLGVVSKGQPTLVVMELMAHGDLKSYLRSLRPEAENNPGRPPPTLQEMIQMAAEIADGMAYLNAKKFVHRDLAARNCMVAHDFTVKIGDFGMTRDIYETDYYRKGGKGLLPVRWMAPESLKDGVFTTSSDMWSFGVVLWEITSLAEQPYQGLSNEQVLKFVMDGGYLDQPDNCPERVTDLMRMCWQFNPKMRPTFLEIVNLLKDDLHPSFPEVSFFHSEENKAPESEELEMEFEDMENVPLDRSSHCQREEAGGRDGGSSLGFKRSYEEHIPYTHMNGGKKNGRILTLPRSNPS

[3] = target: T3, MAPKAP-K3(h) (Homo sapiens, UniProt Q16644)
T3 construct: purchased Eurofins (KinaseProfiler)

[4] = target: T4, NEK9(h) (Homo sapiens, UniProt Q8TD19)
T4 construct: purchased Eurofins (KinaseProfiler)
T4 sequence (Q8TD19 1-979): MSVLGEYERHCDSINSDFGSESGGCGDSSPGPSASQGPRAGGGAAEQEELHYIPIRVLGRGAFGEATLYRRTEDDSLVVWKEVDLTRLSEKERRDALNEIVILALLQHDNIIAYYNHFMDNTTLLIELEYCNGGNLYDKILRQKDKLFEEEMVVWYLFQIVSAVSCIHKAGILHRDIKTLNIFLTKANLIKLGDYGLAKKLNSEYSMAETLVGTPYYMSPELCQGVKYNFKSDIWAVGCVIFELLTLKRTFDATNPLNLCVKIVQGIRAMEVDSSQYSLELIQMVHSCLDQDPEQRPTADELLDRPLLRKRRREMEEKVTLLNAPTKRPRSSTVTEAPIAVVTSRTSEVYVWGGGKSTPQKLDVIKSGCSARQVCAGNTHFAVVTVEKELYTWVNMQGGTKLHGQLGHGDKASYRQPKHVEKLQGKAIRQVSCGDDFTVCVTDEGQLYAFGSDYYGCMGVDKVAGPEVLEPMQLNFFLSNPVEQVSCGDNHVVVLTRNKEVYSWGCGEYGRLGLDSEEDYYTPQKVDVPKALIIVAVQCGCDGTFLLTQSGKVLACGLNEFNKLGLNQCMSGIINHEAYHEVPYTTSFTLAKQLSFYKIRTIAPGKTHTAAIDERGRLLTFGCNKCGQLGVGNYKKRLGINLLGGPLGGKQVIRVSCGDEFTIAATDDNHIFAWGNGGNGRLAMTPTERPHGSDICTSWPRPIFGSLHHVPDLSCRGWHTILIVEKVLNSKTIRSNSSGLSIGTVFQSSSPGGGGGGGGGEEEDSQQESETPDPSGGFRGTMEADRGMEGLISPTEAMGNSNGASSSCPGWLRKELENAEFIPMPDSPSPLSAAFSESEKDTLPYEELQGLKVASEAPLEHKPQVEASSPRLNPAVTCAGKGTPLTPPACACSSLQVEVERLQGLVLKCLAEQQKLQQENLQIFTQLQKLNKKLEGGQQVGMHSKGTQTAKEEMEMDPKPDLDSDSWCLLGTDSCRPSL

[5] = target: T5, CHK2(I157T)(h) (Homo sapiens, UniProt O96017, I157T)
T5 construct: purchased Eurofins (KinaseProfiler)
T5 sequence (O96017 whole entry I157T): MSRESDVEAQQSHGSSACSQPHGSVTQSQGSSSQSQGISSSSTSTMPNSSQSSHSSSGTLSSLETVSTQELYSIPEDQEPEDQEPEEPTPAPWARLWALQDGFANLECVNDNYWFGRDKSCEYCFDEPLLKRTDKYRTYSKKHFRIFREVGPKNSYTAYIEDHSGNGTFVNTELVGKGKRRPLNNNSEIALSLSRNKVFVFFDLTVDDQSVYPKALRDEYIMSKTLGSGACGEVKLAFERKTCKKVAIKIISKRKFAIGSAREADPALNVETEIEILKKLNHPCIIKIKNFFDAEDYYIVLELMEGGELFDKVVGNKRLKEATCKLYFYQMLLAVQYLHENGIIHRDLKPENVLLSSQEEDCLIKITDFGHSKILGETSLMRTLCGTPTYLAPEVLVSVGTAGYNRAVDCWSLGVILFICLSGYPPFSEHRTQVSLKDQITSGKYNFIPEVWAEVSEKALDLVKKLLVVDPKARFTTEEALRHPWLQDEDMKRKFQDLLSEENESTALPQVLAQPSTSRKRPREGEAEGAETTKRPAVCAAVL

[6] = target: T6, MKK7β(h) (Homo sapiens, UniProt O14733)
T6 construct: purchased Eurofins (KinaseProfiler)
T6 sequence (O14733 1-419): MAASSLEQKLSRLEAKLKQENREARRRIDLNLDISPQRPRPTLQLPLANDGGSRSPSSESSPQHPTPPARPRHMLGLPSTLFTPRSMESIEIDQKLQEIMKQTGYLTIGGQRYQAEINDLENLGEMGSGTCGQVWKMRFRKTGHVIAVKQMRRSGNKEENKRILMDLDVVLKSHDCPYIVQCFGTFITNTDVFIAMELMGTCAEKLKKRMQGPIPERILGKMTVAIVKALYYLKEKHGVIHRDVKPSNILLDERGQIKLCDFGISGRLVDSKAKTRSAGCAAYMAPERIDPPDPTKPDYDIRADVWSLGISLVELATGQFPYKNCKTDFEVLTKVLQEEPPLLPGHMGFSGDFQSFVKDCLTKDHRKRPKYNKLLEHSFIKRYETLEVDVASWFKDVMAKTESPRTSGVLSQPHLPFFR

[7] = target: T7, ROCK-I(h) (Homo sapiens, UniProt Q13464)
T7 construct: purchased Eurofins (KinaseProfiler)
T7 sequence (Q13464 whole entry): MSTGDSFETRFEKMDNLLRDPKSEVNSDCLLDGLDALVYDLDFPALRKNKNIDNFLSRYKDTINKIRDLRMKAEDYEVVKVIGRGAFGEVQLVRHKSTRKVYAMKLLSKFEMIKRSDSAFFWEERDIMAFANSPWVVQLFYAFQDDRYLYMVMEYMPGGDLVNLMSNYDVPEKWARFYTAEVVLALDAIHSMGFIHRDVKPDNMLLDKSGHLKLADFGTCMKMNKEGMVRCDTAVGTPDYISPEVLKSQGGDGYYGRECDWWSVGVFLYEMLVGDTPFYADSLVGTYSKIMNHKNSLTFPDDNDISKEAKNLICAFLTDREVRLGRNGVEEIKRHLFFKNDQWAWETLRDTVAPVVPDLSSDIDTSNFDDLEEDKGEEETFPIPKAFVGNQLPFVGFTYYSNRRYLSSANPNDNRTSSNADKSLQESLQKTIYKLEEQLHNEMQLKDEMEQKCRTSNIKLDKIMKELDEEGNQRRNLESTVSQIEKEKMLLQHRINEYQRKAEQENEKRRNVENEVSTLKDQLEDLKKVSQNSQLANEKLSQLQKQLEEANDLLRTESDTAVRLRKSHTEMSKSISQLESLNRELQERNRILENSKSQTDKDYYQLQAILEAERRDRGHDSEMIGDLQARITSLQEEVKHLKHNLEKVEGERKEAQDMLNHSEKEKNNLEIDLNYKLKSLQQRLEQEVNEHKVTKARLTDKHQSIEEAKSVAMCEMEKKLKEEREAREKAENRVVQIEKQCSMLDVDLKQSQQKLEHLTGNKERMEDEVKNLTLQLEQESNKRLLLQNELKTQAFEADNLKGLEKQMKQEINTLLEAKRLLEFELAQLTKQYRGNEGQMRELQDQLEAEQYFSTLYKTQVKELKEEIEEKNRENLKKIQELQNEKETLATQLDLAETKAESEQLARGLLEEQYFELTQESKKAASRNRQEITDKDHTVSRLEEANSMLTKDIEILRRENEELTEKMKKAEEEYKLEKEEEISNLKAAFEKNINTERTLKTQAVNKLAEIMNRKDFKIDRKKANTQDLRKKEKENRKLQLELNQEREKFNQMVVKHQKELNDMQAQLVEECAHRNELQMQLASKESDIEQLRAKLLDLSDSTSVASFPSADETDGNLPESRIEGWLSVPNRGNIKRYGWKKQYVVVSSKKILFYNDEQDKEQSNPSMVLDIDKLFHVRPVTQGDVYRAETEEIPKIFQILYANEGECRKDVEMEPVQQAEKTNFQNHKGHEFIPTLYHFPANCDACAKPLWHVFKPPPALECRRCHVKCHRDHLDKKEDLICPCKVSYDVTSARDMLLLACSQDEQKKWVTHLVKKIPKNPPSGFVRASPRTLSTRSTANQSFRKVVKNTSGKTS

[8] = target: T8, NIM1(h) (Homo sapiens, UniProt Q8IY84)
T8 construct: purchased Eurofins (KinaseProfiler)

[9] = target: T9, Txk(h) (Homo sapiens, UniProt P42681)
T9 construct: purchased Eurofins (KinaseProfiler)
T9 sequence (P42681 1-527): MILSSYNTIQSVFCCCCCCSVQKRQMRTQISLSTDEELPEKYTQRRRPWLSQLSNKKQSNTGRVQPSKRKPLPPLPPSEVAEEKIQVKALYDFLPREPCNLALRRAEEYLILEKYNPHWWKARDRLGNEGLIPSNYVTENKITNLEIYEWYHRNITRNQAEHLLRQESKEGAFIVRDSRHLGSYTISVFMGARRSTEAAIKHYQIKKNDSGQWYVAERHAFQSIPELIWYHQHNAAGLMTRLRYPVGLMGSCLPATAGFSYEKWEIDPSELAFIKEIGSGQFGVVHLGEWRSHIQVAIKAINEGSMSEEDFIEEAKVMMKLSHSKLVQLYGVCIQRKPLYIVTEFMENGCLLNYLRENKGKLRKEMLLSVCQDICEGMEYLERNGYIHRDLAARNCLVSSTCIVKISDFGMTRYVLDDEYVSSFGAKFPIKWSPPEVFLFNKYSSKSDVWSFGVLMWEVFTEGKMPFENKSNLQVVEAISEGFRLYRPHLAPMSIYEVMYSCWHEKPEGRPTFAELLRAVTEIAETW

[10] = target: T10, PRK1(h) (Homo sapiens, UniProt Q16512)
T10 construct: purchased Eurofins (KinaseProfiler)
T10 sequence (Q16512 whole entry): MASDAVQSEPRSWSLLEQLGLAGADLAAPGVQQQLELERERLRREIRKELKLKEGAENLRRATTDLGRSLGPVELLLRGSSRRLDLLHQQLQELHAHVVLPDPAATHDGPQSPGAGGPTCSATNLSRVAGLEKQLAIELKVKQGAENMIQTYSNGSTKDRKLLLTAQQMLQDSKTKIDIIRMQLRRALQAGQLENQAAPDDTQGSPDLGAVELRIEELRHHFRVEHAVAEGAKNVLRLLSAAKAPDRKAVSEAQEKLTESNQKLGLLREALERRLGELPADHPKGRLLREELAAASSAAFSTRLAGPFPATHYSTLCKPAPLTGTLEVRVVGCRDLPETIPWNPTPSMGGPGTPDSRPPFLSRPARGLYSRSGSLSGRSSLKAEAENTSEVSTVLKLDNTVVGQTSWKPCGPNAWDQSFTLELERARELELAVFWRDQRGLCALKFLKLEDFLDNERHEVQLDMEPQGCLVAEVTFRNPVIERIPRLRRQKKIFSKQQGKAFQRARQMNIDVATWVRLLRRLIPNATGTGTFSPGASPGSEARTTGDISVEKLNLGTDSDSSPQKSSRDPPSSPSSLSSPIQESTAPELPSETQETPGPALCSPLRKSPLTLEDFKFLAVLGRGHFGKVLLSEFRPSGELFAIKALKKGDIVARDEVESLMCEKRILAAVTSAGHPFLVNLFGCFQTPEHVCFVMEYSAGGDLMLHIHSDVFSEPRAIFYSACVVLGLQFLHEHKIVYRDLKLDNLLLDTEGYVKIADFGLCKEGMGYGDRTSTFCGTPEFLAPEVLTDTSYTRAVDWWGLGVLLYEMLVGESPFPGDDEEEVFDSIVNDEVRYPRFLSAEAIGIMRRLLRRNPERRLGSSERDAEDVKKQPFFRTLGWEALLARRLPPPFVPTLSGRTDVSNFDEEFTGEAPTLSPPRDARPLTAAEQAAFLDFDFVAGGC

T1 sequence (P53350 whole entry): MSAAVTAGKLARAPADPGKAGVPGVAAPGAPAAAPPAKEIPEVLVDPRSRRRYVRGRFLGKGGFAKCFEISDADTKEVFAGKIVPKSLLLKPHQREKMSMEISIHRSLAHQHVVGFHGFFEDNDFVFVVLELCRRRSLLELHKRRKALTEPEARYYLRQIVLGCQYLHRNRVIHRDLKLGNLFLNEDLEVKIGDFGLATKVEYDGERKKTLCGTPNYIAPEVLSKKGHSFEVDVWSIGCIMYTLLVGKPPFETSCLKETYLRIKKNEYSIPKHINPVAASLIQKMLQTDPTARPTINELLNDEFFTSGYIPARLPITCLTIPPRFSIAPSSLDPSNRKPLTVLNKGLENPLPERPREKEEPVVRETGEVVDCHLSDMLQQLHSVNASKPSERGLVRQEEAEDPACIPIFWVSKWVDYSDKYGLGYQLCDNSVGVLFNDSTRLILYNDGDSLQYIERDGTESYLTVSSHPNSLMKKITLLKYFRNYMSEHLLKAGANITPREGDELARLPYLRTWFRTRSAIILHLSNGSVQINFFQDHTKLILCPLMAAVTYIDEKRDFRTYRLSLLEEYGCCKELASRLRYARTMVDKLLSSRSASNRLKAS

## COc1cc(OC)c(Cl)c(-c2ccc3c(NC(=O)c4ccc(N5CCNC(C)(C)C5)cc4)n[nH]c3n2)c1Cl [3D185]
[1]; 10 nM
  inhibition at 0.01 µM: -6%
[1]; 100 nM
  inhibition at 0.1 µM: 2%
[1]; 1000 nM
  inhibition at 1 µM: -4%
[2]; 10 nM
  inhibition at 0.01 µM: 16%
[2]; 100 nM
  inhibition at 0.1 µM: 32%
[2]; 1000 nM
  inhibition at 1 µM: 94%
[3]; 10 nM
  inhibition at 0.01 µM: 8%
[3]; 100 nM
  inhibition at 0.1 µM: 17%
[3]; 1000 nM
  inhibition at 1 µM: 19%
[4]; 10 nM
  inhibition at 0.01 µM: -12%
[4]; 100 nM
  inhibition at 0.1 µM: -6%
[4]; 1000 nM
  inhibition at 1 µM: 14%
[5]; 10 nM
  inhibition at 0.01 µM: -6%
[5]; 100 nM
  inhibition at 0.1 µM: -5%
[5]; 1000 nM
  inhibition at 1 µM: -1%
[6]; 10 nM
  inhibition at 0.01 µM: 9%
[6]; 100 nM
  inhibition at 0.1 µM: -2%
[6]; 1000 nM
  inhibition at 1 µM: 12%
[7]; 10 nM
  inhibition at 0.01 µM: -2%
[7]; 100 nM
  inhibition at 0.1 µM: -12%
[7]; 1000 nM
  inhibition at 1 µM: -3%
[8]; 10 nM
  inhibition at 0.01 µM: -9%
[8]; 100 nM
  inhibition at 0.1 µM: 0%
[8]; 1000 nM
  inhibition at 1 µM: 0%
[9]; 10 nM
  inhibition at 0.01 µM: 18%
[9]; 100 nM
  inhibition at 0.1 µM: 27%
[9]; 1000 nM
  inhibition at 1 µM: 49%
[10]; 10 nM
  inhibition at 0.01 µM: 2%
[10]; 100 nM
  inhibition at 0.1 µM: 1%
[10]; 1000 nM
  inhibition at 1 µM: 2%
